Data published in ChEMBL document CHEMBL5143565, “Toll-like receptor 7 and 8 imidazoquinoline-based agonist/antagonist pairs” (Bioorg Med Chem Lett, 2022).

Experiments:
[1] = molecular target: T1, Toll-like receptor 7 (Homo sapiens, UniProt Q9NYK1); assay: Agonist activity at TLR7 in human HEK-SEAP reporter cell assessed as NF-kappaB activation; assay type: cell-based
T1 sequence (Q9NYK1 whole entry): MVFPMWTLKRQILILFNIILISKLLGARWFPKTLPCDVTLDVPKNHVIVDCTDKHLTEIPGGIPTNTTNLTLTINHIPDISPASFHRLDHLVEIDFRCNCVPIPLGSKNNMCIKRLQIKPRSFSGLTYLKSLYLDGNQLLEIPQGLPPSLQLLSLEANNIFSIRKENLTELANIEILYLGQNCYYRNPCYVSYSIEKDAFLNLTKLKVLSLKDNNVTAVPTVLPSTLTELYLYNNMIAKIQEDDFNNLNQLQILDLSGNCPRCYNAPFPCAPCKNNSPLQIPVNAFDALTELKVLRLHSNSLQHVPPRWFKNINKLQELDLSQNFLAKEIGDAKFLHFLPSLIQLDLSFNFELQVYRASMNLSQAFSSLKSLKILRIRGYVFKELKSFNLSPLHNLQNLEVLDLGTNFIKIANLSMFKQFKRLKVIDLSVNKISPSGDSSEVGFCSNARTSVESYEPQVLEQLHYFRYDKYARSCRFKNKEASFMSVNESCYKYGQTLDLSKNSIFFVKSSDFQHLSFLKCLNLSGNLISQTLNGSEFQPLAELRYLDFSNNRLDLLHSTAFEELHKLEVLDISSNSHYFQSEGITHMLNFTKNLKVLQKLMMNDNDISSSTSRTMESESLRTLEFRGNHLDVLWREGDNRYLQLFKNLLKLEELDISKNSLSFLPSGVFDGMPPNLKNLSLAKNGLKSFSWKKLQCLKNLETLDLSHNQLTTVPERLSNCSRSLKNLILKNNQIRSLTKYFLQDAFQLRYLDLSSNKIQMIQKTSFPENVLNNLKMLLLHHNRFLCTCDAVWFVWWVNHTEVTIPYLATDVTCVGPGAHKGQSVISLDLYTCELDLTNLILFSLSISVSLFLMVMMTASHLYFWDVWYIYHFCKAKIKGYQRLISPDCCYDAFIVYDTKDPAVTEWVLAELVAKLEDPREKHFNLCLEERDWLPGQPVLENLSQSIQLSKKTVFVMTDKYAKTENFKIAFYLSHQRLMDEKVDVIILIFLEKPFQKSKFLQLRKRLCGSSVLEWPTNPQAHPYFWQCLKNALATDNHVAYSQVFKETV

[2] = molecular target: T2, Toll-like receptor 8 (Homo sapiens, UniProt Q9NR97); assay: Agonist activity at TLR8 in human HEK-SEAP reporter cell assessed as NF-kappaB activation; assay type: cell-based
T2 sequence (Q9NR97 whole entry): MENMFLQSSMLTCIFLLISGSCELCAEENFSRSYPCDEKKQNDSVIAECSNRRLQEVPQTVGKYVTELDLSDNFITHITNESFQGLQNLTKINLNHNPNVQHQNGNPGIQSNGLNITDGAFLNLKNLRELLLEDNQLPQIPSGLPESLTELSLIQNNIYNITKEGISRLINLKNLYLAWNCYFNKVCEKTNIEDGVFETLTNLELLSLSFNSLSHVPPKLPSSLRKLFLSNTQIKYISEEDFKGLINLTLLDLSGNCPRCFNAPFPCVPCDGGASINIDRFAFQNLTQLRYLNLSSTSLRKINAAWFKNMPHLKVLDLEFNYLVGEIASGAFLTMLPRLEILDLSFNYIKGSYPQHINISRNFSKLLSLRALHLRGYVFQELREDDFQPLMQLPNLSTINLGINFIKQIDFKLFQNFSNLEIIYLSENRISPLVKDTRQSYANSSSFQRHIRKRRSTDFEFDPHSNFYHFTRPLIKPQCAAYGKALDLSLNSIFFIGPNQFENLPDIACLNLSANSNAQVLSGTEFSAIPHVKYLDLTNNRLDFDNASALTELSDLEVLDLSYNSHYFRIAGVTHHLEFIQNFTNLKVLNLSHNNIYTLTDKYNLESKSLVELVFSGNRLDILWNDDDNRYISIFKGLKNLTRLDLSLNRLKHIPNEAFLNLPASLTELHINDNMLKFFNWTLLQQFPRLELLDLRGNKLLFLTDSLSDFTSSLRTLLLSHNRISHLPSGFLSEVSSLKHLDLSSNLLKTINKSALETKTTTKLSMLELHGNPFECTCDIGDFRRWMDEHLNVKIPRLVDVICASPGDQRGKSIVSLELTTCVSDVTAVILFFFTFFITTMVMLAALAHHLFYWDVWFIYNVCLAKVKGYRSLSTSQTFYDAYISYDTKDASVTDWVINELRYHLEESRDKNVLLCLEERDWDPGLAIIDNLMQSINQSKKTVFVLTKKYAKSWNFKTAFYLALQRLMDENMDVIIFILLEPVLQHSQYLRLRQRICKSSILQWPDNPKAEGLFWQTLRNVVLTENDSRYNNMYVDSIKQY

Row | SMILES | EC50 [1] [µM] | EC50 [2] [µM]
1 | CC(C)Cc1nc2c(N)nc3ccccc3c2n1Cc1ccc(CN)cc1 | 0.21 | –
2 | COC(=O)c1ccc2c(c1)nc(N)c1nc(CC3CC3)n(CC(C)O)c12 (centres undefined) | 13.2 | –
3 | CC(C)Cc1nc2c(N)nc3ccccc3c2n1CC(C)O (centres undefined) | – | 27
4 | CC(O)Cn1c(CC2CC2)nc2c(N)nc3ccccc3c21 (centres undefined) | 0.99 | –
